Residue numbers refer to the chain shown, from its start.
How the values were obtained:
[1] = target: T1, Glycine receptor subunit alpha-1 (Homo sapiens, UniProt P23415); test: Antagonist activity at recombinant human glycine receptor alpha 1 expressed in human tsA201 cells assessed as inhibition of glycine-induced receptor activation after 30 mins by FLIPR membrane potential blue assay; assay type: cell-based
T1 sequence (P23415 whole entry): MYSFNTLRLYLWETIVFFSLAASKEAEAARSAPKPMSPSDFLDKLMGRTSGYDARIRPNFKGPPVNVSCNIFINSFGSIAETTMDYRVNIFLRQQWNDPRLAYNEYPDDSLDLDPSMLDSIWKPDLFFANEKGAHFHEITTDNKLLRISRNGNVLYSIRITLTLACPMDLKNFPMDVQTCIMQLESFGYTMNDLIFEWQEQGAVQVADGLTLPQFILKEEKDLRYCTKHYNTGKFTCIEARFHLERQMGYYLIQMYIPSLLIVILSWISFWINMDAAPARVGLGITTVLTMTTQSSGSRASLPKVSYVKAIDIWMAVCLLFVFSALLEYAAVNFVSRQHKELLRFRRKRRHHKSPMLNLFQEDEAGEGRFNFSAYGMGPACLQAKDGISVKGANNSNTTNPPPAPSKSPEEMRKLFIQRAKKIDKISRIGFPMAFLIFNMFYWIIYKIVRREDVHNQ

[2] = target: T2, Glycine receptor (alpha-1/beta) (Homo sapiens, UniProt P23415+P48167); test: Antagonist activity at recombinant human glycine receptor alpha 1 beta expressed in human tsA201 cells assessed as inhibition of glycine-induced receptor activation after 30 mins by FLIPR membrane potential blue assay; assay type: cell-based
[3] = target: T1, Glycine receptor subunit alpha-1; test: Antagonist activity at recombinant human glycine receptor alpha 1 expressed in HEK293 cells assessed as inhibition of glycine-induced current at -50 mV holding potential by whole cell patch-clamp method; assay type: cell-based
[4] = target: T2, Glycine receptor (alpha-1/beta); test: Antagonist activity at recombinant human glycine receptor alpha 1 beta expressed in HEK293 cells assessed as inhibition of glycine-induced current at -50mV holding potential by whole cell patch-clamp method; assay type: cell-based
[5] = species on record: Homo sapiens; test: Selectivity ratio of IC50 for recombinant human glycine receptor alpha 1 beta expressed in human tsA201 cells to IC50 for recombinant human glycine receptor alpha 1 expressed in human tsA201 cells; assay type: cell-based
[6] = target: T3, Glycine receptor subunit alpha-1 (Rattus norvegicus, UniProt P07727)
T3 sequence (P07727 whole entry): T1 sequence (P23415 whole entry) with L9F, E27D, E362D, A365G, S396N, P402A, Q457K
Description: Displacement of [3H]strychnine from glycine receptor alpha 1 in rat brain synaptic membranes

[7] = target: T1, Glycine receptor subunit alpha-1; test: Displacement of [3H]strychnine from recombinant human glycine receptor alpha 1 expressed in HEK293 cell membranes after 30 mins by liquid scintillation counting method

T2 sequence (P48167 whole entry, one chain of several): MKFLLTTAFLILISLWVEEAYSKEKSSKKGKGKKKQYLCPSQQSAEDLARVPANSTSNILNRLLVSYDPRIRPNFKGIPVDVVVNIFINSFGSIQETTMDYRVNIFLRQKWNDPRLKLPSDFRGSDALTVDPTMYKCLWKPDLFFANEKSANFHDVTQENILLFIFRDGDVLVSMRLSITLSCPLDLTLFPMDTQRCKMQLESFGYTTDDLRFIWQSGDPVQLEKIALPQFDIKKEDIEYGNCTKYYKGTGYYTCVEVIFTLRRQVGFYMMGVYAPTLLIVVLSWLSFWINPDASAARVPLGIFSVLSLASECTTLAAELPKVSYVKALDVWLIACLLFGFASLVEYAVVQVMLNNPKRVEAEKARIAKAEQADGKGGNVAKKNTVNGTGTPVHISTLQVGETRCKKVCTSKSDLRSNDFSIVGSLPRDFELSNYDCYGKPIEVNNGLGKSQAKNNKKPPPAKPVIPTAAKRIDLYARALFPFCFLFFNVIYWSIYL

Question: Which results are given for Nc1ccc2c(c1)[C@@]13CCN4CC5=CCO[C@H]6CC(=O)N2[C@H]1[C@H]6[C@H]5C[C@H]43?
Answer: IC50 ([1]; read-out: IC50): 0.077 µM; IC50 [2]: 0.27 µM; IC50 [3]: 0.076 µM; IC50 [4]: 0.097 µM; Ratio IC50 [5]: 3 to 4; Ki [6]: 0.018 µM

Question: With COC(=O)CO/N=C1/C(=O)N2c3ccccc3[C@@]34CCN5CC6=CCO[C@@H]1[C@@H]([C@H]23)[C@H]6C[C@H]54 as the compound, how does the IC50 ([1]; read-out: IC50) read?
Answer: Its IC50 is 0.22 µM.

Question: And the IC50 [2]?
Answer: Its IC50 is 0.67 µM.

Question: Which results are given for CCC(=O)Nc1ccc2c(c1)[C@@]13CCN4CC5=CCO[C@H]6CC(=O)N2[C@H]1[C@H]6[C@H]5C[C@H]43?
Answer: IC50 ([1]; read-out: IC50): 0.54 µM; IC50 [2]: 0.94 µM; IC50 [3]: 0.201 µM; IC50 [4]: 0.311 µM; Ki [7]: 0.067 µM

Question: What does the source list for O=C1/C(=N/OCc2ccccc2)[C@@H]2OCC=C3CN4CC[C@]56c7ccccc7N1[C@H]5[C@H]2[C@H]3C[C@H]46?
Answer: IC50 ([1]; read-out: IC50): 0.17 µM; IC50 [2]: 0.31 µM

Question: With O=C1C[C@@H]2OCC=C3CN4CC[C@]56c7ccccc7N1[C@H]5[C@H]2[C@H]3C[C@H]46 [STRYCHNINE] as the compound, how does the IC50 ([1]; read-out: IC50) read?
Answer: Its IC50 is 0.093 µM.

Question: And the IC50 [2]?
Answer: Its IC50 is 0.18 µM.

Question: And the IC50 [3]?
Answer: The IC50 was 0.051 µM.

Question: And the IC50 [4]?
Answer: Its IC50 is 0.058 µM.

Question: And the Ki [7]?
Answer: Its Ki is 0.023 µM.

Question: And the Ki [6]?
Answer: Its Ki is 0.012 µM.

Question: Which results are given for CCCO/N=C1/C(=O)N2c3ccccc3[C@@]34CCN5CC6=CCO[C@@H]1[C@@H]([C@H]23)[C@H]6C[C@H]54?
Answer: IC50 ([1]; read-out: IC50): 0.11 µM; IC50 [2]: 0.35 µM; IC50 [3]: 0.109 µM; IC50 [4]: 0.116 µM; Ki [7]: 0.241 µM; Ratio IC50 [5]: 3 to 4

Question: How did the IC50 ([1]; read-out: IC50) turn out when O=C1C[C@@]23c4ccccc4N4C(=O)C[C@@H]5OCC=C6CN1[C@H]2C[C@@H]6[C@@H]5[C@H]43 was run?
Answer: The IC50 was 6.9 µM.

Question: What about the IC50 [2] of the same compound?
Answer: Its IC50 is 9.8 µM.

Question: How did the IC50 ([1]; read-out: IC50) turn out when CCC[N+]12CC[C@@]34c5ccccc5N5C(=O)C[C@@H]6OCC=C(C1)[C@H](C[C@@H]32)[C@@H]6[C@H]54 (stereo partly specified) was run?
Answer: The IC50 was 10 µM.

Question: And the IC50 [2]?
Answer: The IC50 was 13 µM.

Question: And the IC50 [3]?
Answer: Its IC50 is 4.59 µM.

Question: And the IC50 [4]?
Answer: The IC50 was 6.53 µM.

Question: COC(=O)CCCCO/N=C1/C(=O)N2c3ccccc3[C@@]34CCN5CC6=CCO[C@@H]1[C@@H]([C@H]23)[C@H]6C[C@H]54 was tested. Which IC50 ([1]; read-out: IC50) did it give?
Answer: Its IC50 is 0.72 µM.

Question: And the IC50 [2]?
Answer: Its IC50 is 1.5 µM.

Question: For CCCCO/N=C1/C(=O)N2c3ccccc3[C@@]34CCN5CC6=CCO[C@@H]1[C@@H]([C@H]23)[C@H]6C[C@H]54, which IC50 ([1]; read-out: IC50) is on record?
Answer: Its IC50 is 0.37 µM.

Question: And the IC50 ([1]; read-out: pIC50 (converted))?
Answer: The IC50 was 0.38 µM.

Question: What about the IC50 [2] of the same compound?
Answer: Its IC50 is 0.88 µM.

Question: With O=C1/C(=N/OCCc2ccccc2)[C@@H]2OCC=C3CN4CC[C@]56c7ccccc7N1[C@H]5[C@H]2[C@H]3C[C@H]46 as the compound, how does the IC50 ([1]; read-out: IC50) read?
Answer: Its IC50 is 0.69 µM.

Question: What about the IC50 ([1]; read-out: pIC50 (converted)) of the same compound?
Answer: Its IC50 is 0.708 µM.

Question: What about the IC50 [2] of the same compound?
Answer: The IC50 was 0.78 µM.

Question: Which results are given for C#CCO/N=C1/C(=O)N2c3ccccc3[C@@]34CCN5CC6=CCO[C@@H]1[C@@H]([C@H]23)[C@H]6C[C@H]54?
Answer: IC50 ([1]; read-out: IC50): 0.052 µM; IC50 [2]: 0.24 µM; IC50 [3]: 0.059 µM; IC50 [4]: 0.043 µM

Question: What does the source list for CC(C)CO/N=C1/C(=O)N2c3ccccc3[C@@]34CCN5CC6=CCO[C@@H]1[C@@H]([C@H]23)[C@H]6C[C@H]54?
Answer: IC50 ([1]; read-out: IC50): 0.26 µM; IC50 [2]: 1.1 µM; Ratio IC50 [5]: 3 to 4

Question: Which IC50 ([1]; read-out: IC50) does the source give for CO/N=C1/C(=O)N2c3ccccc3[C@@]34CCN5CC6=CCO[C@@H]1[C@@H]([C@H]23)[C@H]6C[C@H]54 here?
Answer: Its IC50 is 0.1 µM.

Question: What about the IC50 [2] of the same compound?
Answer: The IC50 was 0.21 µM.

Question: What about the IC50 [3] of the same compound?
Answer: The IC50 was 0.075 µM.

Question: What about the IC50 [4] of the same compound?
Answer: Its IC50 is 0.056 µM.

Question: What about the Ki [7] of the same compound?
Answer: Its Ki is 0.189 µM.

Question: CCCCCO/N=C1/C(=O)N2c3ccccc3[C@@]34CCN5CC6=CCO[C@@H]1[C@@H]([C@H]23)[C@H]6C[C@H]54 was tested. Which IC50 ([1]; read-out: IC50) did it give?
Answer: Its IC50 is 0.25 µM.

Question: What about the IC50 [2] of the same compound?
Answer: The IC50 was 0.71 µM.

Question: What about the Ratio IC50 [5] of the same compound?
Answer: Its Ratio IC50 is 3 to 4.

Question: What does the source list for C=CCO/N=C1/C(=O)N2c3ccccc3[C@@]34CCN5CC6=CCO[C@@H]1[C@@H]([C@H]23)[C@H]6C[C@H]54?
Answer: IC50 ([1]; read-out: IC50): 0.095 µM; IC50 [2]: 0.15 µM; IC50 [3]: 0.049 µM; IC50 [4]: 0.046 µM; Ki [7]: 0.37 µM

Reference: ChEMBL document CHEMBL3997776, “Oxime Ethers of (E)-11-Isonitrosostrychnine as Highly Potent Glycine Receptor Antagonists” (J Nat Prod, 2016)
